Source: patent US5972636A (priority 1997, dated 1999)
Read-outs that look alike come from different tables or passages of the source.

B1: cystatin B (protein, UniProt P04080 1-98, looked up)
Cystatin-B: MMCGAPSATQPATAETQHIADQVRSQLEEKENKKFPVFKAVSFKSQVVAGTNYFIKVHVGDEDFVHLRVFQSLPHENKPLTLSNYQTNKAKHDELTYF
B2: cystatin C: member of the cystatin superfamily (protein, UniProt P01034 27-146, looked up)
Cystatin-C: SSPGKPPRLVGGPMDASVEEEGVRRALDFAVGEYNKASNDMYHSRALQVVRARKQIVAGVNYFLDVELGRTTCTKTQPNLDNCPFHDQPHLKRKAFCSFQIYAVPWQGTMTLSKSTCQDA

Legend:
[1] = target: T1, proteasome from skeletal muscle (Oryctolagus cuniculus, UniProt G1T4Q9); type: biochemical, rabbit
T1 construct: from tissue; host or cells: rabbit skeletal (psoas) muscle, proteasome fraction after Mono Q and Superose 6

[2] = system: new protease (multipain) from skeletal muscle; conditions: for Relative activity (%) NEW […] OH/O2 - treated hemoglobin / Relative activity (%) NEW […] lysozyme / Relative activity (%) NEW […] Ub-lysozyme: Table IV, 37° C. 1 h; for Relative activity (%) NEW […] OH/O2 - treated hemoglobin / Relative activity (%) NEW […] lysozyme: concentrations as in E1; for effect of nucleotides on Ub-125I-lysozyme hydrolysis by the purified enzyme, in words / Relative activity (%), degradation of Ub-125I-lysozyme by the new activity: Table III; for Relative activity (%), degradation of Ub-125I-lysozyme by the new activity: 2 mM of the nucleotides or 10 mM PPi, 37° C. 1 hour; for Relative activity (%) NEW […] Ub-lysozyme: DFP 1 mM, Cystatin A 4 uM, Hemin 0.1 mM, NEM 1 mM, Leupeptin 0.1 mM, E64 0.1 mM, NaOleate 0.125 mM, SDS 0.01%, o-Phenanthroline 0.1 mM
[3] = system: 1500 kDa complex (proteasome-multipain); conditions: for effect of nucleotides on Ub-125I-lysozyme hydrolysis by the complex, in words / Realtive Activity (%) Complex, Ub-lysozyme degradation: Table VIII; for Realtive Activity (%) Complex, Ub-lysozyme degradation: 2 mM of the nucleotide or 10 mM PPi
[4] = system: proteasome-multipain complex formation; type: biochemical, rabbit; conditions: DFP 1 mM or cystatin 4 μM preincubated 10 min; AMP-PNP in place of ATP
[5] = system: ATP-ubiquitin-dependent proteolytic system; experiment: ATP-ubiquitin-activated proteolysis in extracts (Fraction II) of psoas muscle; type: biochemical, rabbit
Excerpt: Psoas muscles from fed and fasted rabbits were used to obtain sufficient material for assay of the ATP-dependent system in cell-free extracts. Fasted rabbits were deprived of food for sufficient time to cause a weight loss of about 20% (similar to that seen in rats deprived of food for 1 day). The animals were anesthesized, and their psoas muscles dissected and homogenized as described previously. Fagan, J. M., et al., J. Biol. Chem., 261: 5705-5713 (1986).
After centrifugation at 10,000×g and then at 100,000×g, the muscle extracts were fractionated on DE52 cellulose to remove ubiquitin and most cell proteins, as described previously. Han, H. Q. et al., Federation Proc, 2:A564 (1988) and Waxman, L., et al., J. Biol. Chem., 262:2451-2457 (1987). The fraction containing the ATP-ubiquitin-dependent proteolytic system (Herskho, A., J. Biol. Chem., 263:15237-15240 (1988); Rechsteiner, M., Ann. Rev. Cell Biol., 3:1-30 (1987) and Fagan, J. M., et al. Biochem J., 243:335-343 (1987)) was eluted with 0.5M NaCl ("Fraction II"), dialyzed against a buffer containing Tris (50 mM, pH7.8), dithiothreitol (1 mM), and 20% glycerol, and concentrated before assay of activity. Degradation of endogenous muscle proteins was assayed by measuring the production of free tyrosine, which was determined fluorometrically after precipitation of proteins with trichloroacetic acid. Tischler, M. et al., J. Biol, Chem., 257:1613-1621 (1982) and Fulks, R., et al., J. Biol. Chem., 250:290-298 (1975). In addition, the degradation of ^14 C-casein was assayed by measuring the production of acid-soluble radioactivity. Waxman, L., et al., J. Biol. Chem., 262:2451-2457 (1987) and Fagan, J. M., Biochem J., 243:335-343 (1987).

[6] = Table VII, substrate Ub-125I-lysozyme, None = 100, 2 mM ATP, concentrations as in E5
[7] = Table VII, None = 100, 2 mM ATP, DFP 1 mM, Cystatin 4 μM, NEM 1 mM, Leupeptin 100 μM, E-64 100 μM, Sodium oleate 125 μM, SDS 0.01%, o-Phenanthroline 100 μM

Molecule | Realtive Activity (%) Proteasome (sLLVT-MCA) [1] [%] | Relative activity (%) […]-MCA [1] [%] | Relative activity (%) NEW […] OH/O2 - treated hemoglobin ([2]; None = 100, 2 mM ATP) [%] | Relative activity (%) NEW […] lysozyme ([2]; None = 100, 2 mM ATP) [%] | Relative activity (%), degradation of Ub-125I-lysozyme by the new activity ([2]; None = 100) [%] | Realtive Activity (%) Complex, Ub-lysozyme degradation ([3]; None = 100) [%] | Relative activity (%) NEW […] Ub-lysozyme ([2]; None = 100, 2 mM ATP) [%] | also measured
CCCCCCCCCCCCOS(=O)(=O)[O-].[Na+] [SDS, sodium dodecyl sulfate] | 125 | 125 | 42 | 46 |  |  |  | Realtive Activity (%) Multipain [2]: 44%; Relative activity (%) NEW PROTEASE Ub-lysozyme [2]: 44%; Realtive Activity (%) Complex (Ub-125I-Lysozyme) [3]: 46%
CBZ-ala-arg-arg-CK |  |  |  |  |  |  |  | concentration that inactivates multipain [2]: 50 µM; concentration that inactivates the 1500 kDa complex [3]: 50 µM
Nc1ncnc2c1ncn2[C@@H]1O[C@H](COP(=O)(O)OP(=O)(O)OP(O)(O)=S)[C@@H](O)[C@H]1O [ATP-γ-S, adenosine 5'-o-thiotriphosphate] |  |  |  |  | 103 | 135 |  | effect of nucleotides on Ub-125I-lysozyme hydrolysis by the purified enzyme, in words [2]: No stimulation; effect of nucleotides on Ub-125I-lysozyme hydrolysis by the complex, in words [3]: No stimulation
CC(C)C[C@H](NC(=O)[C@H]1O[C@@H]1C(=O)O)C(=O)NCCCCNC(=N)N [E64] | 100 | 100 | 100 | 100 |  |  | 100 | Realtive Activity (%) Multipain [2, 6]: 100%; effect on Ub-conjugate breakdown by the new protease (multipain), in words ([2]; text): not at all; effect on Ub-conjugate breakdown by the new protease (multipain), in words ([2]; text, listed as E-64): unable to inhibit multipain; effect on the complex, in words ([3]; Table VII): did not show any significant effect on the complex; Realtive Activity (%) Complex (Ub-125I-Lysozyme) [3, 7]: 96%
Nc1nc2c(ncn2[C@@H]2O[C@H](COP(=O)(O)OP(=O)(O)OP(=O)(O)O)[C@@H](O)[C@H]2O)c(=O)[nH]1 [GTP] |  |  |  |  | 435 | 326 |  | stimulation of Ub-lysozyme hydrolysis by the new protease ([2]; ATP 2 mM where stated, 60 min): ~4 fold
O=c1ccn([C@@H]2O[C@H](COP(=O)(O)OP(=O)(O)OP(=O)(O)O)[C@@H](O)[C@H]2O)c(=O)[nH]1 [UTP] |  |  |  |  | 108 | 174 |  | 
Nc1ncnc2c1ncn2[C@@H]1O[C@H](COP(=O)(O)OP(=O)(O)OP(=O)(O)O)[C@@H](O)[C@H]1O [ATP] |  |  |  |  | 743 | 458 |  | effect on formation of the proteasome-multipain complex, in words [4]: allowed formation of a 1300 kDa complex; 14C-Casein Hydrolysis [5]: 2.3 ± 0.2 ug casein hydrolyzed/1 hr; Hydrolysis of Endogenous Proteins ([5]; Fasted rabbits, No addition 2.0 ± 0.1, ATP 5 mM, ubiquitin 15 μM): 10.8 ± 2.1 nmol try released/2 hr; Hydrolysis of Endogenous Proteins ([5]; Fed rabbits, No addition 0.6 ± 0.1, ATP 5 mM, ubiquitin 15 μM): 5.7 ± 0.9 nmol try released/2 hr; 14C-Casein Hydrolysis ([5]; Fed rabbits, No addition 1.1 ± 0.2, ATP 5 mM, ubiquitin 15 μM): 1.5 ± 0.2 ug casein hydrolyzed/1 hr; stimulation of Ub-lysozyme hydrolysis by the new protease ([2]; ATP 2 mM where stated, 60 min): 5 fold; stimulation of lysozyme degradation by the new protease ([2]; ATP 2 mM where stated, 60 min): 3 fold; Km ([2]; read-out: Km for ATP, multipain, Ub-conjugate degradation): ≤ 300 µM; ATP concentration of maximal stimulation of conjugate degradation, 1500 kDa complex [3]: about 0.7 mM; stimulation of degradation of Ub-125I-lysozyme, 125I-lysozyme, sLLVT-MCA or casein by the complex ([3]; 1500 kda proteasome-multipain complex): 3-5 fold; Km ([3]; read-out: Km for ATP, 1500 kDa complex, Ub-conjugate degradation): ≤ 300 µM
c1cnc2c(c1)ccc1cccnc12 [o-Phenanthroline] | 60 | 60 | 54 | 55 |  |  | 48 | Realtive Activity (%) Multipain [2, 6]: 48%; effect on Ub-conjugate breakdown by the new protease (multipain), in words ([2]; text): showed some inhibition; inhibition of conjugate breakdown by the complex ([3]; Table VII): about 60%; Realtive Activity (%) Complex (Ub-125I-Lysozyme) [3, 7]: 57%
CC(=O)N[C@@H](CC(C)C)C(=O)N[C@@H](CC(C)C)C(=O)N[C@H](C=O)CCCNC(=N)N [Leupeptin] | 83 | 83 | 73 | 72 |  |  | 69 | Realtive Activity (%) Multipain [2, 6]: 69%; inhibition of Ub-conjugate breakdown by the new protease ([2]; cystatin B at concentrations similar to cystatin A): 30%; effect on the complex, in words ([3]; Table VII): did not show any significant effect on the complex; Realtive Activity (%) Complex (Ub-125I-Lysozyme) [3, 7]: 75%
CCCCCCCC/C=C\CCCCCCCC(=O)[O-].[Na+] [NaOleate, Sodium oleate] | 179 | 179 | 40 | 34 |  |  | 29 | Realtive Activity (%) Multipain [2, 6]: 29%; Realtive Activity (%) Complex (Ub-125I-Lysozyme) [3, 7]: 38%
Hemin |  | 0 | 7 | 0 |  |  | 0 | effect on Ub-conjugate breakdown by the new protease (multipain), in words ([2]; text): blocked conjugate-degrading activity; effect on Ub-conjugate breakdown by the new protease (multipain), in words ([2]; text, listed as hemin): is sensitive to
Nc1ncnc2c1ncn2[C@@H]1O[C@H](COP(=O)(O)OP(=O)(O)O)[C@@H](O)[C@H]1O [ADP] |  |  |  |  | 113 | 146 |  | effect of nucleotides on Ub-125I-lysozyme hydrolysis by the purified enzyme, in words [2]: no significant effect; effect of nucleotides on Ub-125I-lysozyme hydrolysis by the complex, in words [3]: no significant effect
Nc1ccn([C@@H]2O[C@H](COP(=O)(O)OP(=O)(O)OP(=O)(O)O)[C@@H](O)[C@H]2O)c(=O)n1 [CTP] |  |  |  |  | 373 | 410 |  | stimulation of Ub-lysozyme hydrolysis by the new protease ([2]; ATP 2 mM where stated, 60 min): ~4 fold
Nc1ncnc2c1ncn2[C@@H]1O[C@H](COP(=O)(O)O)[C@@H](O)[C@H]1O [AMP] |  |  |  |  | 130 | 99 |  | effect of nucleotides on Ub-125I-lysozyme hydrolysis by the purified enzyme, in words [2]: no significant effect; effect of nucleotides on Ub-125I-lysozyme hydrolysis by the complex, in words [3]: no significant effect
CCN1C(=O)C=CC1=O [NEM, N-ethylmaleimide] | 37 | 37 | 30 | 27 |  |  | 29 | Realtive Activity (%) Multipain [2, 6]: 29%; effect on Ub-conjugate breakdown by the new protease (multipain), in words ([2]; text): strongly inhibited this activity; inhibition of conjugate breakdown by the complex ([3]; Table VII): 65%; Realtive Activity (%) Complex (Ub-125I-Lysozyme) [3, 7]: 33%
B1 |  |  |  |  |  |  |  | inhibition of Ub-conjugate breakdown by the new protease [2]: 55%
B2 |  |  |  |  |  |  |  | effect on Ub-conjugate breakdown by the new protease (multipain), in words [2]: no significant effect
